# How the values were obtained:
# [1] = test system: breast cancer (MCF-7) cell line; assay: In vitro anti-proliferative activity, MTT assay, MCF-7; type: cell-based, human; settings: for IC50: Homo sapiens, MCF7, 48 h, read-out: In vitro IC50 (nM) Mean ± SD MCF-7, MTT, 48 h, mean ± SD, n = 3; for In vitro IC50 (nM) Mean ± SD MCF-7: MTT, 48 h, n = 3
# [2] = test system: hepatocellular carcinoma (HepG-2) cell line; assay: In vitro anti-proliferative activity, MTT assay, HepG-2; type: cell-based, human; settings: for IC50: Homo sapiens, HepG2, 48 h, read-out: In vitro IC50 (nM) Mean ± SD HepG-2; for In vitro IC50 (nM) Mean ± SD HepG-2: MTT, 48 h, n = 3
# CDK2/cyclin A2 = CDK2/cyclin A2 (Homo sapiens, UniProt P24941); assay: biochemical
# [3] = test system: colorectal carcinoma (HCT-116) cell line; assay: In vitro anti-proliferative activity, MTT assay, HCT-116; type: cell-based, human; settings: 48 h, n = 3
SMILES,IC50 [1],IC50 [2],IC50 (CDK2/cyclin A2),In vitro IC50 (nM) Mean ± SD HepG-2 [2],In vitro IC50 (nM) Mean ± SD MCF-7 [1],In vitro IC50 (nM) Mean ± SD HCT-116 [3]
"N=c1c2cnn(C(=O)CNc3ccc(F)cc3)c2ncn1N[C@@H]1O[C@H](CO)[C@@H](O)[C@H](O)[C@H]1O [Compound 5, 1-(4-Imino-5-((ß-D-glucopyranosyl)amino)-4,5-dihydro-1H-pyrazolo[3,4-d]pyrimidin-1-yl)-2-((4-fluorophenyl)amino)ethan-1-one]",663 ± 1.4 nM,690 ± 0.48 nM,2050 ± 50 nM,,,
"N=c1c2cnn(C(=O)CNc3ccc(F)cc3)c2ncn1N[C@@H]1OC[C@@H](O)[C@H](O)[C@H]1O [Compound 6, 1-(4-Imino-5-((ß-D-xylopyranosyl)amino)-4,5-dihydro-1H-pyrazolo[3,4-d]pyrimidin-1-yl)-2-((4-fluorophenyl)amino)ethan-1-one]",621 ± 2.7 nM,98 ± 0.78 nM,559 ± 13 nM,,,
"COC(CSc1nc2c3cnn(C(=O)CNc4ccc(F)cc4)c3ncn2n1)OC [Compound 9, 1-(2-((2,2-Dimethoxyethyl)thio)-7H-pyrazolo[4,3-e][1,2,4]triazolo[1,5-c]pyrimidin-7-yl)-2-((4-fluorophenyl)amino)ethan-1-one]",60 ± 0.49 nM,690 ± 1.6 nM,881 ± 49 nM,no activity,,
"O=C(CNc1ccc(F)cc1)n1ncc2c1ncn1nc(SCC(O)CO)nc21 (stereo not drawn) [Compound 10, 1-{2-[(2,3-Dihydroxypropyl)thio]-7H-pyrazolo[4,3-e][1,2,4]triazolo[1,5-c]pyrimidin-7-yl}-2-((4-fluorophenyl)amino)ethan-1-one]",95 ± 1.9 nM,987 ± 2 nM,506 ± 11 nM,,potent activity,
"CC(=O)OCC(CSc1nc2c3cnn(C(=O)CNc4ccc(F)cc4)c3ncn2n1)OC(C)=O (stereo not drawn) [Compound 11, 3-((7-((4-Fluorophenyl)glycyl)-7H-pyrazolo[4,3-e][1,2,4]triazolo[1,5-c]pyrimidin-2-yl)thio)propane-1,2-diyl diacetate]",63 ± 1.1 nM,49 ± 0.17 nM,89 ± 5 nM,moderate activity,good activity,most potent cytotoxic results
"O=C(CNc1ccc(F)cc1)n1ncc2c1ncn1nc(SCCO)nc21 [Compound 12, 1-(2-((2-Hydroxyethyl)thio)-7H-pyrazolo[4,3-e][1,2,4]triazolo[1,5-c]pyrimidin-7-yl)-2-((4-fluorophenyl)amino)ethan-1-one]",613 ± 0.33 nM,928 ± 0.97 nM,961 ± 19 nM,inactive,inactive,inactive
"CC(=O)OCCSc1nc2c3cnn(C(=O)CNc4ccc(F)cc4)c3ncn2n1 [Compound 13, 2-((7-((4-Fluorophenyl)glycyl)-7H-pyrazolo[4,3-e][1,2,4]triazolo[1,5-c]pyrimidin-2-yl)thio)ethyl acetate]",55 ± 0.43 nM,74 ± 1.1 nM,130 ± 7 nM,moderate activity,good activity,most potent cytotoxic results

# The remaining compounds from weak to strong by IC50 [1], led by results:
IC50 [1],IC50 [2],IC50 (CDK2/cyclin A2),In vitro IC50 (nM) Mean ± SD HepG-2 [2],In vitro IC50 (nM) Mean ± SD MCF-7 [1],SMILES,In vitro IC50 (nM) Mean ± SD HCT-116 [3]
937 ± 0.93 nM,63 ± 0.11 nM,274 ± 5 nM,moderate activity,,"O=C(CNc1ccc(F)cc1)n1ncc2c1ncn1[nH]c(=S)nc21 [Compound 7, 1-(2-Thioxo-2,3-dihydro-7H-pyrazolo[4,3-e][1,2,4]triazolo[1,5-c]pyrimidin-7-yl)-2-((4-fluorophenyl)amino)ethan-1-one]",
150 ± 1.5 nM,603 ± 1.9 nM,1340 ± 21 nM,,,"N=c1c2cnn(C(=O)CNc3ccc(F)cc3)c2ncn1N [Compound 4, 1-(5-Amino-4-imino-4,5-dihydro-1H-pyrazolo[3,4-d]pyrimidin-1-yl)-2-((4-fluorophenyl)amino)ethan-1-one]",
144 ± 0.47 nM,19 ± 0.29 nM,,,,"CNC(=O)c1cc(Oc2ccc(NC(=O)Nc3ccc(Cl)c(C(F)(F)F)c3)cc2)ccn1 [Sorafenib, reference compound]",
72 ± 0.53 nM,8 ± 0.34 nM,1060 ± 59 nM,potent activity,,"N#CCSc1nc2c3cnn(C(=O)CNc4ccc(F)cc4)c3ncn2n1 [Compound 8, 2-((7-((4-Fluorophenyl)glycyl)-7H-pyrazolo[4,3-e][1,2,4]triazolo[1,5-c]pyrimidin-2-yl)thio)acetonitrile]",

# Source: article PMC9278437 (Journal of Enzyme Inhibition and Medicinal Chemistry, 2022)
